pEC50: −log10 of the molar value. Where two headings read alike, the source gives them in different places.
Tests used:
[1] = DMF
[2] = target: recombinant GSK3β kinase (Homo sapiens (Human), UniProt P49841); test: GSK3β kinase assay (Ser/Thr 09 peptide Z-lyte, FRET); assay type: biochemical; conditions: 46 μM ATP, one hour at room temperature, read-out: EC50 (μM) (IC50 per method)
From the text: Representative compounds were screened using the assay procedure for GSK3β kinase activity as described below.
The GSK3β kinase assay is run using the Ser/Thr 09 peptide Z-lyte assay kit according to manufacturer's instructions (Life Technologies—a Division of Thermo-Fisher). This is a non-radioactive assay using fluorescence resonance energy transfer (FRET) between coumarin and fluorescein to detect kinase activity which is represented as ratio of coumarin emission/fluorescein emission.
Briefly, recombinant GSK3β kinase, ATP and Ser/Thr peptide 09 are prepared in 1× Kinase buffer to final concentrations of 0.04 μg/mL, 46 μM, and 4 μM respectively. The mixture is allowed to incubate with the representative compounds for one hour at room temperature. All reactions were performed in duplicate. Unphosphorylated (“0% Control”) and phosphorylated (“100% control”) forms of […] serve as control reactions.
(§1) After incubation, diluted Development Buffer is added to the reaction and allowed to further incubate for one hour at room temperature. The plate is read at Ex 400 Em 455 to detect the coumarin signal and Ex 400 Em 520 to measure the signal (EnVision Multilabel Plate Reader, PerkinElmer).
The Emission ratio (Em) is calculated as a ratio of the coumarin (C) emission signal (at 445 nm)/Fluorescein (F) emission signal (at 520 nm). The percent phosphorylation is then calculated using the following formula: [1−((Em ratio×F100%)−C100%)/((C0%−C100%)+(Em ratio×(F100%−F0%)))].
Dose-response curves are generated and inhibitory concentration (IC50) values are calculated using non-linear regression curve fit in the Dotmatics' Studies Software (Bishops Stortford, UK).

[3] = system: Wnt activity (Sp5-Luc reporter, SW480 colon carcinoma cells); test: Sp5-Luc reporter gene screening assay for Wnt activity in SW480 cells; assay type: cell-based; conditions: Homo sapiens; Sp5-Luc reporter, SW480 cells, 36 to 48 hours
From the text: The screening assay for Wnt activity is described as follows. Reporter cell lines can be generated by stably transducing cancer cell lines (e.g., colon cancer) or primary cells (e.g., IEC-6 intestinal cells) with a lentiviral construct that includes a Wnt-responsive promoter driving expression of the firefly luciferase gene.
SW480 colon carcinoma cells were transduced with a lentiviral vector expressing luciferase with a human Sp5 promoter consisting of a sequence of eight TCF/LEF binding sites. SW480 cells stably expressing the Sp5-Luc reporter gene and a hygromycin resistance gene were selected by treatment with 150 μg/mL of hygromycin for 7 days. These stably transduced SW480 cells were expanded in cell culture and used for all further screening activities. […] For Sp5-Luc reporter gene assays, the cells were plated at 4,000 cells/well in 384-well plates with a DMEM medium containing 1% fetal bovine serum, and 1% Penicillin-Streptomycin and incubated for 36 to 48 hours at 37° C. and 5% CO2. Following incubation, 15 μl of BriteLite Plus luminescence reagent (Perkin Elmer) was added to each well of the 384-well assay plates. The plates were placed on an orbital shaker for 2 min and then luminescence was quantified using the Envision (Perkin Elmer) plate reader. Readings were normalized to DMSO only treated cells, and normalized activities were utilized for EC50 calculations using the dose-response log (inhibitor) vs. response-variable slope (four parameters) nonlinear regression feature available in GraphPad Prism 5.0 (or Dotmatics).

[4] = system: SW480 colon carcinoma cells; test: Cell viability assay (CellTiter-Glo) in SW480 cells; assay type: cell-based; conditions: Homo sapiens; for pEC50: 96 h, SW480 cell viability, four days, CellTiter-Glo
Protocol: Representative compounds were screened using the assay procedure to assess the effect on cell viability as described below.
SW480 colon carcinoma cells were transduced with a lentiviral vector expressing luciferase with a human Sp5 promoter consisting of a sequence of eight TCF/LEF binding sites. SW480 cells stably expressing the Sp5-Luc reporter gene and a hygromycin resistance gene were selected by treatment with 150 μg/mL of hygromycin for 7 days. These stably transduced SW480 cells were expanded in cell culture and used for all further screening activities.
For the Cell Viability Assays, the cells were plated at 2,000 cells/well in 384-well plates with a DMEM medium containing 1% fetal bovine serum, and 1% Penicillin-Streptomycin and incubated for […] at 37° C. and 5% CO2. Eight replicates of DMSO-treated cells served as controls and cells treated with compound were performed in duplicate.
After incubation, 10 μL of CellTiter-Glo (Promega) was added to each well allowed to incubate for approximately 12 minutes. This reagent “results in cell lysis and generation of a luminescent signal proportional to the amount of ATP present. The amount of ATP is directly proportional to the number of cells present in culture, in agreement with previous reports. The CellTiter-Glo Assay generates a “glow-type” luminescent signal, produced by the luciferase reaction (Promega.com)”.

[5] = system: primary human mesenchymal stem cells (hMSCs); test: Chondrogenesis induction in hMSCs (Rhodamine B staining intensity, EC50); assay type: cell-based; conditions: 6 days, Rhodamine B staining intensity of nodules
From the text: Representative compounds were screened using primary human mesenchymal stem cells (hMSCs) to determine their ability to induce chondrogenesis (process by which cartilage is developed).
Primary human mesenchymal stem cells (hMSCs) were purchased from Lonza (Walkersville, Md.) and expanded in Mesenchymal Stem Cell Growth Media (Lonza). Cells between passage 2 and 4 were used for the experiments.
To image chondrogenic nodules, the cells were fixed using 4% formaldehyde (Electron Microscopy Sciences), and stained with 2 μg/mL Rhodamine B (Sigma-Aldrich) and 20 μM Nile Red (Sigma-Aldrich) [Johnson K., et. al, A Stem Cell-Based Approach to Cartilage Repair, Science, (2012), 336(6082). […] Rhodamine B staining intensity of nodules in each well was normalized to the average of 3 DMSO treated wells on the same plate using Excel (Microsoft Inc.). The normalized averages (fold change over DMSO) of 3 replicate wells for each compound concentration were calculated. EC50 values were calculated using non-linear regression curve fitting in Prism 8 (Graphpad Inc.). Due to solubility limitations of some of the compounds, curve fitting was incomplete, and the highest observed activity was extrapolated to the insoluble doses for accurate EC50 determinations.
EC50 values are reported. Further, using TGF-β3 as a positive control, the concentration of representative compounds required to induce equivalent levels of chondrogenesis is reported. In addition, the maximum activity of each compound and the respective dose that each compound reached maximum chondrogenesis activity is reported.

[6] = target: recombinant DYRK1A kinase (Homo sapiens (Human), UniProt Q13627); test: DYRK1A kinase assay (Ser/Thr 18 peptide Z-lyte, FRET); assay type: biochemical; conditions: 30 μM ATP, one hour at room temperature, read-out: EC50 (μM) (IC50 per method)
From the text: Representative compounds were screened using the assay procedure for DYRK1A kinase activity as described below.
The DYRK1A kinase assay was run using the Ser/Thr 18 peptide Z-lyte assay kit according to manufacturer's instructions (Life Technologies—a Division of Thermo-Fisher). This is a non-radioactive assay using fluorescence resonance energy transfer (FRET) between coumarin and fluorescein to detect kinase activity which is represented as a ratio of coumarin emission/fluorescein emission.
Briefly, recombinant DYRK1A kinase, ATP and Ser/Thr peptide 18 were prepared in 1× Kinase buffer to final concentrations of 0.19 μg/mL, 30 μM, and 4 μM respectively. The mixture was allowed to incubate with the representative compounds for one hour at room temperature. All reactions were performed in duplicate. Unphosphorylated (“0% Control”) and phosphorylated (“100% control”) forms of Ser/Thr 18 served as control reactions. Additionally, an 11-point dose-response curve of Staurosporine (1 uM top) was run to serve as a positive compound control.
as §1, with “incubation, Development Reagent A was” for “incubation,”, “diluted in” for “diluted”, “Buffer then” for “Buffer is”, “plate was” for “plate is”
The Emission ratio (Em) was calculated as a ratio of the coumarin (C) emission signal (at 445 nm)/Fluorescein (F) emission signal (at 520 nm). The percent phosphorylation was then calculated using the following formula: [1−((Em ratio×F100%)−C100%)/((C0%−C100%)+(Em ratio×(F100%−F0%)))].

[7] = system: primary human fibroblasts derived from IPF patients (LL29 cells); test: Inhibition of TGF-β1 induced fibrosis (αSMA staining) in LL29 fibroblasts; assay type: cell-based; conditions: Fibroblast, 96 h, LL29 cells, TGF-β1 20 ng/mL, 4 days, % αSMA positive cells
Protocol: Representative compounds were screened using primary human fibroblasts (derived from IPF patients) treated with TGF-β1 to determine their ability to inhibit the fibrotic process.
LL29 cells were plated at 1,500 cells/well in 70 μL/well F12 medium supplemented with 1% Fetal Bovine Serum. […] Wells treated with TGF-β1 and containing DMSO were used as positive control, and cells with only DMSO were negative control. […] Following incubation for 4 days, SYTOX green nucleic acid stain (Life Technologies [Thermo Fisher Scientific]) was added to the wells at a final concentration of 1 μM and incubated at room temperature for 30 min.

Chain of recombinant GSK3β kinase (P49841 whole entry): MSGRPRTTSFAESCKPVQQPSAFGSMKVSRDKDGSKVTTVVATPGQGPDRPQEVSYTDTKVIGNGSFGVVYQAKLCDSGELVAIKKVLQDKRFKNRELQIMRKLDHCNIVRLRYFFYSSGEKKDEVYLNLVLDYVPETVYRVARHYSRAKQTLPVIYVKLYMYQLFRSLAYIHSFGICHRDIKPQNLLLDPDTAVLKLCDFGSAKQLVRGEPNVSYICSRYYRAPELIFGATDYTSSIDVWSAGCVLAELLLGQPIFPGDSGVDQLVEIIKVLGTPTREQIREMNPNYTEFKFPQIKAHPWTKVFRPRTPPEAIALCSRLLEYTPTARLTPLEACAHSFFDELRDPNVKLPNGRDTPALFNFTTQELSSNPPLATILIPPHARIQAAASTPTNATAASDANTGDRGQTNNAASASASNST

CN1CCCn2cc(nn2)-c2nccc3[nH]c(nc23)-c2n[nH]c3ccc(cc23)-c2cncc(c2)C1
ring closure, isolated yield ([1]; from CNCc1cncc(-c2ccc3[nH]nc(-c4nc5c(-c6cn(CCCCl)nn6)nccc5[nH]4)c3c2)c1, amine bond, 19-membered ring, DIEA, 16.7 mM, 100.0 °C): 71.9%

c1cc2cc(c1)-c1cccc3[nH]c(nc13)-c1n[nH]c3ccc(cc13)-c1cncc(n1)NCCO2 [Compound 109]
IC50 [2]: 0.062 µM | pEC50 [3]: 7.47 | ring closure, isolated yield ([1]; from NCCOc1cccc(-c2cccc3[nH]c(-c4n[nH]c5ccc(-c6cncc(Cl)n6)cc45)nc23)c1, snar bond, 18-membered ring, DIEA, 19.0 mM, 110.0 °C): 26.4% | pEC50 [4]: 7.27 | pEC50 [5]: 8.05 | IC50 [6]: 0.096 µM

O=C1CCCc2cccc(c2)-c2cccc3[nH]c(nc23)-c2n[nH]c3ccc(cc23)-c2cncc(c2)N1 [Compound 71]
pEC50 [7]: 7.68 | IC50 [2]: 0.014 µM | pEC50 [3]: 7.77 | pEC50 [4]: 7.46 | pEC50 [5]: 5.51 | IC50 [6]: 0.014 µM

(Z)-5,10-Dimethyl-1^1H,2^1H-5,10-diaza-1(2,4)-imidazo[4,5-c]pyridina-2(3,5)-indazola-3(3,5)-pyridinacyclodecaphane
ring closure, isolated yield ([1]; amine bond, 18-membered ring, KI/DIEA, 42.4 mM, 90.0 °C): 9.7%

O=C1CCc2cccc(c2)-c2ccnc3[nH]c(nc23)-c2n[nH]c3ccc(cc23)-c2cncc(c2)N1 [Compound 4, (Z)-2^3H,3^1H-5-aza-2(7,2)-imidazo[4,5-b]pyridina-3 (3,5)-indazola-4(3,5)-pyridina-1(1,3)-benzenacyclooctaphan-6-one]
IC50 [2]: 0.494 µM | pEC50 [3]: 5.12 | pEC50 [4]: < 5.00 | inhibition at 10 µM ([4]; SW480, read-out: percent inhibition at 10 μM): 49.5% | pEC50 [5]: 7.16 | IC50 [6]: 0.204 µM

c1ccc(C(c2ccccc2)(c2ccccc2)n2nc3c4cc(ccc42)-c2cncc(c2)OCCCc2cccc(c2)-c2cccc4[nH]c-3nc24)cc1
ring closure, isolated yield ([1]; from Oc1cncc(-c2ccc3c(c2)c(-c2nc4c(-c5cccc(CCCBr)c5)cccc4[nH]2)nn3C(c2ccccc2)(c2ccccc2)c2ccccc2)c1, ether bond, 18-membered ring, K2CO3, 20.0 mM, 80.0 °C): 50.8%

O=C1CCc2cccc(c2)-c2cccc3[nH]c(nc23)-c2nn(C(c3ccccc3)(c3ccccc3)c3ccccc3)c3ccc(cc23)-c2cncc(c2)N1
ring closure, isolated yield ([1]; from Nc1cncc(-c2ccc3c(c2)c(-c2nc4c(-c5cccc(CCC(=O)O)c5)cccc4[nH]2)nn3C(c2ccccc2)(c2ccccc2)c2ccccc2)c1, amide bond, 18-membered ring, HATU/DIEA/DMAP, 17.5 mM, 70.0 °C): 49.2%
